# Data as given in patent US20180179596A1, “HISTONE MODIFICATION AGENTS FOR CANCER TREATMENT” (MOR RESEARCH APPLICATIONS LTD., priority 2015, published 2018).
# Assays:
# [1] = test system: histone H3 acetylation in NALM6 cells overexpressing KANSL1; test: Histone H3 acetylation quantification in NALM6 cells overexpressing KANSL1 after MG-149 treatment; assay type: cell-based, human; conditions: 20 μM MG-149 added 24 h after KANSL1 plasmid transfection; histones extracted 48 h after transfection; FIG. 15
# Procedure: NALM6 cell line was grown in RPMI (ATCC) supplemented with 10% fetal bovine serum (FBS) (Life Technologies), 0.1% L-Glutamine and 0.1% Penicillin Streptomycin (PS) (Life Technologies). Cells were cultured in a humidified atmosphere in an incubator at 37° C. with 5% CO2. Plasmid overexpression transfection was done by electroporation, using the Amaxa® Nucleofector technology (Lonza). Purified plasmid was sent to Maxi-Prep (Hy-Labs) and a concentration of 2 μg was taken for the transfection. As a negative control, a Green Fluorescent Protein (GFP) plasmid provided by the Amaxa kit was used.
# Histones were extracted 48 h after transfection. Total histone protein concentration was adjusted to 400 ng/μl. Histone acetylation quantification was analyzed according to the manufacture's protocol (Epigentek).
# [2] = test system: MYST type of histone acetyltransferase (Tip60 and MOF); conditions: cited from earlier work
structure (smiles),measurement,setting,value
CCCCCCCc1ccc(CCc2cccc(O)c2C(=O)O)cc1 [MG-149],acetylation of histone H3 (total H3 acetylation level),[1],inhibited to near control levels
same,selectivity toward MYST type histone acetyltransferase,[2],selectivity toward the MYST type of histone acetyltransferase (Tip60 and MOF)
